Values of other authors, collected in patent US20190275102A1, “STERILE INJECTABLE COMPOSITION COMPRISING CARFILZOMIB” (CADILA HEALTHCARE LIMITED, priority 2018, published 2019).

How the values were obtained:
[1] = tested on: kidney

| Molecule | solubility in acidic conditions (acidic conditions) | solubility in water (water) | single dose showing renal tolerance ([1]; animal trials, single-dose studies, i.v.) | dose with evidence of renal cellular toxicity ([1]; in vivo) [mg/kg/day] | renal function ([1]; in vivo) |
| --- | --- | --- | --- | --- | --- |
| CC(C)C[C@H](NC(=O)[C@H](CCc1ccccc1)NC(=O)CN1CCOCC1)C(=O)N[C@@H](Cc1ccccc1)C(=O)N[C@@H](CC(C)C)C(=O)[C@@]1(C)CO1 [Carfilzomib, (2S)—N—((S)-1-((S)-4-methyl-1-((R)-2-methytoxiran2-yl)-1-oxopentan-2-ylcarbamoyl)-2-phenylethyl)-2-((S)-2-(2-morpholinoacetamido)-4-phenylbutanamido)-4-methylpentanamide] | very slightly soluble | practically insoluble |  |  |  |
| sulfobutylether beta-cyclodextrin |  |  | up to 2000 mg/kg | ≥ 160 | not impaired |
